Results from ChEMBL document CHEMBL5728196, “Phenylate derivative, preparation method therefor, and pharmaceutical composition and uses thereof” (2021).

Molecular target: Programmed cell death protein 1/Programmed cell death 1 ligand 1 (Homo sapiens, UniProt Q15116+Q9NZQ7)
Experiment: Inhibitory Activity Assay: 1. In vitro activity evaluation: Cisbio PD-1/PD-L1 binding assay kit was applied for the detection method of in vitro enzymology level.Screening Principles and Methods of PD-1/PD-L1 Small Molecule Inhibitors1) Principle: PD-1 protein is with HIS tag, and PD-1 ligand PD-L1 is with hFc tag. Eu labeled anti-hFc antibody and XL665 labeled anti-HIS antibody are combined with the above two label proteins respectively. After laser excitation, energy can be transferred from donor Eu to receptor XL665, allowing XL665 to glow. […] Reagents should be dispensed in the following order. For 384-well white ELISA plate, 2 μl of diluent or target compound diluted with diluent was added to each well, and then 4 μl of PD-1 protein and 4 μl of PD-L1 protein were added per well, incubated for 15 min at room temperature; and 10 μl of a mixture of anti-Tag1-Eu3+ and anti-Tag2-XL665 was added per well and incubated for 1 h to 4 h at room temperature and the fluorescence signals at 665 nm and 620 nm were measured with an Envison instrument. HTRF rate=(665 nm/620 nm)*104. 8-10 concentrations were detected for each compound and IC50 was calculated by Graphpad software.
Format: protein-complex assay

Chain of Programmed cell death protein 1/Programmed cell death 1 ligand 1 (Q15116 whole entry): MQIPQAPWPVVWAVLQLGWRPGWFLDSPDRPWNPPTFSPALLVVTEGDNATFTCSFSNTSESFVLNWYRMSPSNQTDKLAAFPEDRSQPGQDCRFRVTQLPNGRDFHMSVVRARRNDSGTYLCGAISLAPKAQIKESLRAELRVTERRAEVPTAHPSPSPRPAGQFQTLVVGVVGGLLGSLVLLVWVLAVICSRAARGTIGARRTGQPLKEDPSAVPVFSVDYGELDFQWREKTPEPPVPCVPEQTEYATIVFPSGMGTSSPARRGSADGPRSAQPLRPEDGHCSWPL
Chain of Programmed cell death protein 1/Programmed cell death 1 ligand 1 (Q9NZQ7 whole entry): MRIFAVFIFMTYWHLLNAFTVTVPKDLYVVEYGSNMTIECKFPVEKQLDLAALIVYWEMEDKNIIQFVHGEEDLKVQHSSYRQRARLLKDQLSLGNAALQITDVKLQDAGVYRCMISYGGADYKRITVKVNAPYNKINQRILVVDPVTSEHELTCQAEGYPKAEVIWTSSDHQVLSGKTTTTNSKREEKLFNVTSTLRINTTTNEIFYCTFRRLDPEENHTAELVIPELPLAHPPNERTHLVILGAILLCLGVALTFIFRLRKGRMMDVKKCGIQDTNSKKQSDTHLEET

For NC(=O)COc1cc(OCc2cccc(-c3ccc4c(c3)OCCO4)c2Br)c(Cl)cc1CN1C[C@@H](O)C[C@H]1C(=O)O, the IC50 was 182 nM.
